Data published in patent US11554373B2 (priority 2016, dated 2023).
Where a name gives a salt, the structure may show the parent alone.

Key:
[1] = system: THP-1 cells; assay: THP-1 cell activation by flow cytometry (CCR5, CD11b, CD86); type: cell-based, human; set-up: CD86 expression (printed C86): dose or concentration left out as unconfirmed
Procedure: THP-1 monocytes (ATCC, TIB-202) were cultured in T-75 flasks according to the protocol recommended by ATCC. […] THP-1 cells show a proclivity towards forming large aggregates of loosely joined cells. These clumps were broken down back into single cells through the addition of deoxyribonuclease 1 (DNase 1, dissolved in 0.85% NaCl in water) (Sigma-Aldrich, D4513) at a concentration of 0.1 mg/mL. When cells had reached their optimal density, they were harvested and pelleted via centrifugation at 150×g for 5 min, resuspended in multi-organ system medium (MOSM) and added to the systems at a physiologically relevant concentration of 250,000 cells/mL. THP-1 cell adhesion to the inside surfaces of the housings was minimized by passivating the inside surfaces with bovine serum albumin (BSA, 0.5 mg/mL dissolved in PBS). 10 uL of medium was removed from each system daily to determine the number of freely recirculating cells present. Initial THP-1 culture medium consisted of RPMI 1640 base medium (ThermoFisher, 11875135) with 10% fetal bovine serum (ThermoFisher, 16000044) and 1× GlutaMAX (ThermoFisher, 35050061).

[2] = HPLC/MS determination of amiodarone remaining in system medium; type: in vitro ADME; settings: 24 hours post-dose
Procedure: Drug addition to the 3-O and 4-O systems was performed on D3 post-assembly. On the day of addition, 3× concentrations of each drug in the serum-free, multi-organ system medium (MOSM) were prepared in advance. ⅓ of the media in each system was removed and replaced with an equal volume of the concentrated drug solution. This facilitated for rapid mixing and complete diffusion of the drugs in the systems without requiring a full media change. […] Lipopolysaccharide (LPS, Sigma-Aldrich, L2630) was dissolved in PBS 1× at a concentration of 1 μg/mL and interferon-γ (IFN-γ) (Sigma-Aldrich, 11040596001) was dissolved in DI water at a concentration of 100,000 units/mL. LPS and IFN-γ were administered as a single cocktail at final concentrations of 10 ng/mL and 100 units/mL, respectively.
Medium samples collected from the systems were spiked with a tamoxifen internal standard (10 nM final measured concentration) and combined with acetonitrile at a 1:3 ratio to extract proteins. The mixtures were then centrifuged at 100×G for 5 minutes and supernatants were collected and diluted 1 to 51 in the initial mobile phase. […] Quantification and qualification ions for tamoxifen were 372.2→72.1 (28 eV CE) and 372.2→44 (48 eV), respectively. […]

[3] = system: CYP1A; assay: Liver cytochrome p450 activity, endpoint D7; type: cell-based, human; settings: 4-O systems, 50 uM amiodarone vs untreated controls
Procedure: (§1) Cytochrome p450 1A1 and 3A4 isoforms from the hepatic cultures were assessed with a luciferin based method in two reactions. Basal activities were compared to induced activities upon incubations with 10 nM TCDD (Sigma, 48599) and 20 μM Rifampicin (Sigma, R3501) for 48 h, prior to the analysis. At 7, 14, 21 and 28 DIV, cells were rinsed 3 times with 1×PBS and incubated with 1A1 specific substrate, Luciferin-CEE (120 μM) (Promega, V8752) in phenol red-free 1×DMEM (Thermo Fisher Scientific, A1443001) for 3 h at 37° C. The enzymatic product (D-Luciferin) of the first reaction was collected and stored at −80° C. until further analysis. […] Twenty minutes after incubation at room temperature in the dark, luminescence was measured using a Synergy HT plate reader with KC4 software. […] 3A4 samples were measured separately from 1A1 samples due to high differences in luminescence emission. Similarly, induced and uninduced samples were measured separately. Each plate was measured a minimum of 5 times to ensure the photomultiplier detector was stabilized, and the average of all readings was taken for the final RLU values. A regression line with the standards (0.5-500 nM diluted in 1×DMEM), subtracting intrinsic DMEM luminescence from values, was obtained for each analysis. […]

[4] = system: IPSC derived cardiomyocytes; assay: Cardiac spontaneous beat frequency in 3-O/4-O systems; type: cell-based, human
Text: Custom patterned multielectrode arrays (cMEAs) were fabricated to simultaneously stimulate and record electrical activity of cardiomyocytes cultured on the surface (100 μm diameter electrodes, 1000 μm between electrodes). Before culturing, the surfaces were modified to promote cell adhesion in an unbroken “U” pattern that connected multiple electrodes, allowing conduction velocity of the cells to be recorded at different points (14 mm total path length). Patterned cMEAs were introduced to the housings during system assembly on day 0 of the experiment.
Printed circuit boards (PCBs) and flexible elastomeric connectors (zebra connectors, FUJIPOLY, 1 mm wide×18.2 mm long×9 mm tall) were incorporated into each system to create an interface between the cMEA and a commercially available 60 electrode amplifier (MEA1060, Multichannel-systems). This amplifier was used to both record spontaneous and stimulated electrical activity of the cardiomyocytes. A stimulus generator (STG 1002, Multichannel Systems) was used to stimulate the cells (800 mV rectangular pulse, 0.5 Hz to 3.0 Hz in 0.25 Hz increments). The multichannel systems software suite was used to control both the amplifier and stimulator, and was used to record action potentials.
Drug additions were performed on day 3 of the experiment, immediately after baseline recordings of spontaneous and stimulated cell activity were taken. Cell activity was recorded again 48 and 96 hours after drug exposure. Conduction velocity (CV), spontaneous beat frequency and minimum interspike interval (MIST) were extracted from the data using Clampfit (Axon Instruments).
Spontaneous beat frequency was obtained from spontaneous recordings of cardiac activity 20 seconds in length. For each recording, the frequency was calculated as the number of measured action potentials divided by the length of time between the first and last action potential during the recording interval. […]

[5] = system: cardiac tissue; assay: THP-1 cell infiltration into cardiac tissue (phase contrast, CellTracker Red); type: cell-based, human; settings: 4-O system dosed with amiodarone, after three days
Procedure: THP-1 cells were collected in a 15 mL conical tube and centrifuged to a pellet at 300 g for 5 minutes. The cells were resuspended and counted and the volume adjusted to 1×10^6 cells/mL. Then cells were then incubated with Cell Tracker Red CMTPX Dye (ThermoFisher C34552) following the manufacturer's protocol. The dye loaded cells were then used for infiltration studies in 4-O systems as described.

[6] = system: liver tissue; assay: THP-1 infiltration into liver module by immunocytochemistry (CD11b, CD86); type: cell-based, human; settings: systems with recirculating THP macrophages, amiodarone, vs controls
Procedure: At the end of each experiment, cardiac cMEAs and hepatocyte coverslips were fixed with 4% paraformaldehyde in 1×PBS for 5 minutes. Cells were rinsed twice with 1×PBS and Cells were permeabilized with a solution of 0.1% Triton X-100 in 1×PBS for 15 minutes then blocked with 5% donkey serum in 1×PBS for 20 minutes. Cells were then incubated overnight at 4° C. with primary antibody in blocking solution. Primary antibodies used were anti-CD14, anti-CD16, anti-CD69, anti-CD11b, anti-CD86, and anti-CCR5. Following three, five-minute washes with 1×PBS, cells were incubated for 2 hours at room temperature in the dark with a secondary antibody conjugated to Alexa-488 fluorophore, or Alexa-568 fluorophore. Following the secondary antibody incubation, surfaces were washed 3× in PBS and incubated with 3 mM 4′-6-Diamidino-2-Phenylindole (DAPI) in 1×PBS for 10 min, in the dark and at RT for nuclei staining. DAPI solution was removed and the cells were washed 3× with PBS. Finally, coverslips were mounted on glass slides using a Hard Set Mounting with DAPI (Vector laboratories, Inc.). Alternatively, MEAs were left in the final 1×PBS rinse and imaged using a water immersion lens.

[7] = system: cardiac cells; assay: Endpoint viability (alamar blue) of cardiac chips; type: cell-based, human; settings: 50 uM; endpoint day 7
Procedure: (§4) Cell viability was evaluated in one of three ways depending on the surface the cells were grown on. […] The viability of cardiac and skeletal muscle cells plated on BioMEMs devices was assessed using an alamar blue solution (Thermofisher, DAL1025). Surfaces were incubated in 500 μL of a 10% solution (v:v) of alamar blue in growth medium at 37° C., 5% CO2 for 24 hours. 100 μL of the solution was placed into a 96 well plate and read at fluorescence excitation wavelength 570 nm and emission at 590 nm using the BioTeK Synergy HT plate reader.

[8] = system: THP-1 cells; assay: Viability of THP-1 cells treated directly; type: cell-based, human; settings: amiodarone treatment of THP-1 cells alone
[9] = system: skeletal muscle cells; assay: Endpoint viability (alamar blue) of skeletal muscle chips; type: cell-based, human; settings: 50 uM; endpoint day 7
Procedure: as §4

[10] = system: IPSC derived cardiomyocytes; assay: Cardiac conduction velocity on patterned cMEA in 3-O/4-O systems; type: cell-based, human
Procedure: (§2) A four-organ system (4-O) was developed to contain a liver compartment, recirculating THP-1 cells, and three separate bioMEMs devices to measure the cardiomyocytes' electrical and mechanical functionality, as well as the mechanical function of the skeletal muscle. Three organ systems (3-0) were also developed to serve as a monocyte-free control for the 4-O systems. […] Cardiac and skeletal muscle mechanical function was evaluated by seeding the cardiomyocytes and skeletal muscle onto their own respective custom arrays of microscale cantilevers. Contractile force of the cardiac and skeletal muscle was calculated from laser-based measurements of cantilever bending resulting from contractile muscle (Stancescu et al 2015). Cardiac electrical function was measured via a microelectrode array amplifier system by incorporating and patterning cardiomyocytes onto custom microelectrode arrays with chemical patterning to produce a defined conduction path along a series of surface embedded microelectrodes (Nataraj an et al 2011, Stancescu et al 2015). Electrical stimulation for skeletal muscle force was generated inside the system with housing-embedded electrodes for cantilevers. […]
Custom patterned multielectrode arrays (cMEAs) were fabricated to simultaneously stimulate and record electrical activity of cardiomyocytes cultured on the surface (100 μm diameter electrodes, 1000 μm between electrodes). Before culturing, the surfaces were modified to promote cell adhesion in an unbroken “U” pattern that connected multiple electrodes, allowing conduction velocity of the cells to be recorded at different points (14 mm total path length). […]
Drug additions were performed on day 3 of the experiment, immediately after baseline recordings of spontaneous and stimulated cell activity were taken. Cell activity was recorded again 48 and 96 hours after drug exposure. […]

[11] = system: skeletal muscle myotubes; assay: Skeletal muscle force on cantilevers in 3-O/4-O systems; type: cell-based, human; settings: 50 uM; up to four days after dose, with or without THP-1
Procedure: as §2
(§3) Cardiac and skeletal muscle contractions were measured using a cantilever deflection system that has been described previously (McAleer, 2014; Oleaga, 2016; Oleaga, 2017; Pirozzi, 2013). […]

[12] = biological target: CYP3A4 (Homo sapiens, UniProt P08684); assay: Liver cytochrome p450 activity, endpoint D7; type: cell-based; settings: 4-O systems, 50 uM amiodarone vs untreated controls
Chain of CYP3A4 (P08684 whole entry): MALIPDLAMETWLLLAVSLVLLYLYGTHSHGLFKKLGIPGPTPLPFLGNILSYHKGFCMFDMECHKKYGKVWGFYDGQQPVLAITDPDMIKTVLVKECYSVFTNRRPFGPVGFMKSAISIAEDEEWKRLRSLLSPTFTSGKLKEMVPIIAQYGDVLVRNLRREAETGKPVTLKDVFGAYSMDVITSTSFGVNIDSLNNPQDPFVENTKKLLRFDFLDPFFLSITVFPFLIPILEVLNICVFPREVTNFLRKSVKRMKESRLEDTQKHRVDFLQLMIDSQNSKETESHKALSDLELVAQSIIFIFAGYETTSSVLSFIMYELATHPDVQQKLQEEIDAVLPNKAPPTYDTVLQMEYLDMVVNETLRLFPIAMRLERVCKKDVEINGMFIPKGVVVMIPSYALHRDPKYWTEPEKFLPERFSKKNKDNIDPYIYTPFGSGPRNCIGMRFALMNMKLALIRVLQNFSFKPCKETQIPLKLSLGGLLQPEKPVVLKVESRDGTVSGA
Procedure: as §1

[13] = system: IPSC derived cardiomyocytes; assay: Cardiac contractile force on cantilevers in 3-O/4-O systems; type: cell-based, human
Procedure: as §2, §3

[14] = system: 3-O systems+THP-1 cells; assay: Cytokine release in multi-organ systems; type: cell-based, human; settings: 50 uM amiodarone; 7-day time course
[15] = biological target: CYP2C9 (Homo sapiens, UniProt P11712); assay: Liver cytochrome p450 activity, endpoint D7; type: cell-based; settings: 4-O systems, 50 uM amiodarone vs untreated controls
Chain of CYP2C9 (P11712 whole entry): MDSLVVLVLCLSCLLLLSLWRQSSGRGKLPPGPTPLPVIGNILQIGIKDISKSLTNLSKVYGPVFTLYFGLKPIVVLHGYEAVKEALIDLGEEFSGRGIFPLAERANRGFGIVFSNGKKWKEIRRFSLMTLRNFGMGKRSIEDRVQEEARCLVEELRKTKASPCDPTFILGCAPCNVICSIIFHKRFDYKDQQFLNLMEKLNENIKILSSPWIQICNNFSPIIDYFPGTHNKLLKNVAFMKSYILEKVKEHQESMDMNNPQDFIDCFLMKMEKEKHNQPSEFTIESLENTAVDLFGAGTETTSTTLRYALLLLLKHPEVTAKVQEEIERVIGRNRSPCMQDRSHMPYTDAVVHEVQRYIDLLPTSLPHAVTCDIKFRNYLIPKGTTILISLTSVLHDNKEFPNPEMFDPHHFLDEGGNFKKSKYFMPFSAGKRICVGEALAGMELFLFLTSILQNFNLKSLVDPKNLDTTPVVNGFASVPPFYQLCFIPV

[16] = THP-1 culture dosed with 50 μM PMA (positive control)
[17] = 50 uM acute, 4-O systems (with THP-1 cells)
[18] = 50 uM, 4-O systems, D4 after dose
[19] = 50 uM, without THP-1, vs untreated 3-O systems
[20] = amiodarone treatment of THP-1 cells alone
[21] = recirculating THP-1 cells from 4-O & 4-O+Amiodarone systems, days 1, 3, 5, 7

CCCCCCCCCCCCCC(=O)O[C@@H]1[C@@H](C)[C@@]2(O)[C@@H](C=C(CO)C[C@]3(O)C(=O)C(C)=C[C@@H]23)[C@@H]2C(C)(C)[C@]12OC(C)=O [PMA, phorbol 12-myristate 13-acetate]
increase in CCR5 expression [1, 16]: 8% | increase in CD11b expression [1, 16]: 23% | CD86 expression (printed C86) ([1]; THP-1 culture dosed with PMA (positive control)): relatively unchanged

CCCCc1oc2ccccc2c1C(=O)c1cc(I)c(OCCN(CC)CC)c(I)c1 [amiodarone, Amiodarone hydrochloride]
amiodarone mean concentration still present in the systems ([2]; 50 μM dose, 3-O systems+THP-1 cells): 1.41 µM | reduction of amiodarone in medium ([2]; from 50 μM): 97% | CYP1A activity [3]: not affected | decrease in cardiac beat frequency [4, 17]: 60% | beat frequency at D4 [4, 18]: recovery | reduction of cardiac beat frequency [4, 19]: 45% | THP-1 cell infiltration into cardiac tissue [5]: visibly infiltrated | CD11b and CD86 staining of liver cells (THP infiltration) [6]: increase | cardiac chip viability [7]: does not significantly reduce viability | THP-1 cell viability [8]: did not significantly alter | skeletal muscle chip viability [9]: does not significantly reduce viability | decrease in cardiac conduction velocity [10, 17]: 50% | conduction velocity at D4 [10, 18]: recovery | reduction of cardiac conduction velocity [10, 19]: 20% | effect on skeletal muscle force [11]: no significant effect | CCR5 expression [1, 20]: did not significantly alter | CD11b expression [1, 20]: did not significantly alter | CD86 expression [1, 20]: did not significantly alter | CCR5 expression [1, 21]: largely stable | CD11b expression [1, 21]: increased | CD86 expression [1, 21]: largely stable | CYP3A4 activity [12]: significantly reduced | decrease in cardiac force output [13, 17]: 80% | decrease in cardiac force output ([13]; acute dose 50 uM, printed as 4-O systems treated vs untreated systems): 50% | IL-6 level [14]: increased | IL-8 level [14]: increased | MCP-1 level [14]: increased | CYP2C9 activity [15]: not affected
